Results: patent US10597387B2, “Methods to treat lymphoplasmacytic lymphoma” (Dana-Farber Cancer Institute, Inc., priority 2013, dated 2020)
Where two headings read alike, the source gives them in different places.

How the values were obtained:
Experiment in all cases: KiNativ kinase profiling
ACK = ACK (Homo sapiens (Human), UniProt Q07912); format: binding; conditions: Lys1, A375 cells, read-out: inhibition of kinase labeling
BLK = BLK (Homo sapiens (Human), UniProt P51451); format: binding; conditions: Activation Loop, A375 cells, read-out: inhibition of kinase labeling
CaMK2d = CaMK2d (Homo sapiens (Human), UniProt Q13557); format: binding; conditions: Lys1, A375 cells, read-out: inhibition of kinase labeling
CaMK4 = CaMK4 (Homo sapiens (Human), UniProt Q16566); format: binding; conditions: Lys2, A375 cells, read-out: inhibition of kinase labeling
CDC2 = CDC2 (Homo sapiens (Human), UniProt P06493); format: binding; conditions: Lys2, A375 cells, read-out: inhibition of kinase labeling
CDK7 = CDK7 (Homo sapiens (Human), UniProt P50613); format: binding; conditions: Lys2, A375 cells, read-out: inhibition of kinase labeling
CHK2 = CHK2 (Homo sapiens (Human), UniProt O96017); format: binding; conditions: Lys1, A375 cells, read-out: inhibition of kinase labeling
CK1a = CK1a (Homo sapiens (Human), UniProt P48729); format: binding; conditions: Lys2, A375 cells, read-out: inhibition of kinase labeling
CK1g2 = CK1g2 (Homo sapiens (Human), UniProt P78368); format: binding; conditions: Lys2, A375 cells, read-out: inhibition of kinase labeling
CSK = CSK (Homo sapiens (Human), UniProt P41240); format: binding; conditions: Activation Loop, A375 cells, read-out: inhibition of kinase labeling
DNAPK = DNAPK (Homo sapiens (Human), UniProt P78527); format: binding; conditions: ATP, A375 cells, read-out: inhibition of kinase labeling
Erk2 = Erk2 (Homo sapiens (Human), UniProt P28482); format: binding; conditions: Lys2, A375 cells, read-out: inhibition of kinase labeling
GCK = GCK (Homo sapiens (Human), UniProt Q12851); format: binding; conditions: Lys2, A375 cells, read-out: inhibition of kinase labeling
GSK3A = GSK3A (Homo sapiens (Human), UniProt P49840); format: binding; conditions: Lys2, A375 cells, read-out: inhibition of kinase labeling
HPK1 = HPK1 (Homo sapiens (Human), UniProt Q92918); format: binding; conditions: Lys1, A375 cells, read-out: inhibition of kinase labeling
ILK = ILK (Homo sapiens (Human), UniProt Q13418); format: binding; conditions: Protein Kinase Domain, A375 cells, read-out: inhibition of kinase labeling
KHS1 = KHS1 (Homo sapiens (Human), UniProt Q9Y4K4); format: binding; conditions: Lys1, A375 cells, read-out: inhibition of kinase labeling
LCK = LCK (Homo sapiens (Human), UniProt P06239); format: binding; conditions: Activation Loop, A375 cells, read-out: inhibition of kinase labeling
LYN = LYN (Homo sapiens (Human), UniProt P07948); format: binding; conditions: read-out: inhibition of kinase labeling
MAP2K7 = MAP2K7 (Homo sapiens (Human), UniProt O14733); format: binding; conditions: Lys2, A375 cells, read-out: inhibition of kinase labeling
MAP3K1 = MAP3K1 (Homo sapiens (Human), UniProt Q13233); format: binding; conditions: Lys2, A375 cells, read-out: inhibition of kinase labeling
MAP3K5 = MAP3K5 (Homo sapiens (Human), UniProt Q99683); format: binding; conditions: Lys2, A375 cells, read-out: inhibition of kinase labeling
MARK3 = MARK3 (Homo sapiens (Human), UniProt P27448); format: binding; conditions: Lys1, A375 cells, read-out: inhibition of kinase labeling
MAST3 = MAST3 (Homo sapiens (Human), UniProt O60307); format: binding; conditions: Lys2, A375 cells, read-out: inhibition of kinase labeling
MASTL = MASTL (Homo sapiens (Human), UniProt Q96GX5); format: binding; conditions: Lys1, A375 cells, read-out: inhibition of kinase labeling
MST1 = MST1 (Homo sapiens (Human), UniProt Q13043); format: binding; conditions: Lys1, A375 cells, read-out: inhibition of kinase labeling
MST2 = MST2 (Homo sapiens (Human), UniProt Q13188); format: binding; conditions: Lys1, A375 cells, read-out: inhibition of kinase labeling
MST3 = MST3 (Homo sapiens (Human), UniProt Q9Y6E0); format: binding; conditions: Lys2, A375 cells, read-out: inhibition of kinase labeling
MST4, YSK1 = format: binding, Homo sapiens; conditions: Lys2, 1 μM, A375 cells
NEK7 = NEK7 (Homo sapiens (Human), UniProt Q8TDX7); format: binding; conditions: Lys1, A375 cells, read-out: inhibition of kinase labeling
p38a = p38a (Homo sapiens (Human), UniProt Q16539); format: binding; conditions: Protein Kinase Domain, A375 cells, read-out: inhibition of kinase labeling
PFTAIRE1 = PFTAIRE1 (Homo sapiens (Human), UniProt O94921); format: binding; conditions: Lys1, A375 cells, read-out: inhibition of kinase labeling
PKD1, PKD2 = format: binding, Homo sapiens; conditions: Lys2, 1 μM, A375 cells
PKD3 = PKD3 (Homo sapiens (Human), UniProt O94806); format: binding; conditions: Lys2, A375 cells, read-out: inhibition of kinase labeling
PYK2 = PYK2 (Homo sapiens (Human), UniProt Q14289); format: binding; conditions: Activation Loop, A375 cells, read-out: inhibition of kinase labeling
ROCK1, ROCK2 = format: binding, Homo sapiens; conditions: Lys2, 1 μM, A375 cells
RSK2 domain2 = RSK2 domain2 (Homo sapiens (Human), UniProt P51812); format: binding; conditions: Lys2, A375 cells, read-out: inhibition of kinase labeling
TLK1 = TLK1 (Homo sapiens (Human), UniProt Q9UKI8); format: binding; conditions: Lys2, A375 cells, read-out: inhibition of kinase labeling
ZAK = ZAK (Homo sapiens (Human), UniProt Q9NYL2); format: binding
ZAP70 = ZAP70 (Homo sapiens (Human), UniProt P43403); format: binding; conditions: Activation Loop, A375 cells, read-out: inhibition of kinase labeling

ZAK, sequence (Q9NYL2 whole entry): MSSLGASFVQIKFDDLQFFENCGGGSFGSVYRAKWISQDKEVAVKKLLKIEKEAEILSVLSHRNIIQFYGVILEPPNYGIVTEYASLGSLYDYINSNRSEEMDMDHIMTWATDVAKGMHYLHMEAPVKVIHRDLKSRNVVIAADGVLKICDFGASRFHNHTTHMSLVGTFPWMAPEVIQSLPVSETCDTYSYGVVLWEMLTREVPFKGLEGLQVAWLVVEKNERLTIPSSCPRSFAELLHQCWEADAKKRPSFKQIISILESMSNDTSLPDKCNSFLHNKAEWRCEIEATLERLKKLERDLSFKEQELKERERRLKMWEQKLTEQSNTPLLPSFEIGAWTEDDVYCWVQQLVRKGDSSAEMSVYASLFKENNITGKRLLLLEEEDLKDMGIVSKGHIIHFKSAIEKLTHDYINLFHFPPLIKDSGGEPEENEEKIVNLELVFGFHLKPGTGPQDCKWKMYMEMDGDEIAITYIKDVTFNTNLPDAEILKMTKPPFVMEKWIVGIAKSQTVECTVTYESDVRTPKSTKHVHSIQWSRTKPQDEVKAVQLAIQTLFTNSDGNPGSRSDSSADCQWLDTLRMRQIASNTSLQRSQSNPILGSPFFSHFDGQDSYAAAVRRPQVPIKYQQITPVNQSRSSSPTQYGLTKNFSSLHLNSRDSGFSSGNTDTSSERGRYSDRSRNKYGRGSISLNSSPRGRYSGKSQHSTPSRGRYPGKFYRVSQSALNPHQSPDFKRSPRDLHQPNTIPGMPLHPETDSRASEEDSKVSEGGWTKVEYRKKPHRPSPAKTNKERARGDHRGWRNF
LYN, sequence (P07948 whole entry): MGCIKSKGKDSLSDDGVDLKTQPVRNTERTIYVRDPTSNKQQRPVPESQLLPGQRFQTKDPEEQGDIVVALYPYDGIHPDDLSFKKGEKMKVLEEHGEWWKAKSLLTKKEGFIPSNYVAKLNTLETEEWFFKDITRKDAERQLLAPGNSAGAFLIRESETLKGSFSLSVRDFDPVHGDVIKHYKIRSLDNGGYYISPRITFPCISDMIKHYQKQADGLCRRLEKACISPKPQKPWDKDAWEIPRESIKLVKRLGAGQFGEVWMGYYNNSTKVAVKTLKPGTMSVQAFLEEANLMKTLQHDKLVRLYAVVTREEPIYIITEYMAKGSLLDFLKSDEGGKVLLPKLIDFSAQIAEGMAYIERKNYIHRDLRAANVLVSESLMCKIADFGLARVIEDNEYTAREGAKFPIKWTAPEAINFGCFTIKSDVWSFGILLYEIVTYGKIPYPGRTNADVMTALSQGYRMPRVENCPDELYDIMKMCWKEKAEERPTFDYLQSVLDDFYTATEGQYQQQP
KHS1, sequence (Q9Y4K4 whole entry): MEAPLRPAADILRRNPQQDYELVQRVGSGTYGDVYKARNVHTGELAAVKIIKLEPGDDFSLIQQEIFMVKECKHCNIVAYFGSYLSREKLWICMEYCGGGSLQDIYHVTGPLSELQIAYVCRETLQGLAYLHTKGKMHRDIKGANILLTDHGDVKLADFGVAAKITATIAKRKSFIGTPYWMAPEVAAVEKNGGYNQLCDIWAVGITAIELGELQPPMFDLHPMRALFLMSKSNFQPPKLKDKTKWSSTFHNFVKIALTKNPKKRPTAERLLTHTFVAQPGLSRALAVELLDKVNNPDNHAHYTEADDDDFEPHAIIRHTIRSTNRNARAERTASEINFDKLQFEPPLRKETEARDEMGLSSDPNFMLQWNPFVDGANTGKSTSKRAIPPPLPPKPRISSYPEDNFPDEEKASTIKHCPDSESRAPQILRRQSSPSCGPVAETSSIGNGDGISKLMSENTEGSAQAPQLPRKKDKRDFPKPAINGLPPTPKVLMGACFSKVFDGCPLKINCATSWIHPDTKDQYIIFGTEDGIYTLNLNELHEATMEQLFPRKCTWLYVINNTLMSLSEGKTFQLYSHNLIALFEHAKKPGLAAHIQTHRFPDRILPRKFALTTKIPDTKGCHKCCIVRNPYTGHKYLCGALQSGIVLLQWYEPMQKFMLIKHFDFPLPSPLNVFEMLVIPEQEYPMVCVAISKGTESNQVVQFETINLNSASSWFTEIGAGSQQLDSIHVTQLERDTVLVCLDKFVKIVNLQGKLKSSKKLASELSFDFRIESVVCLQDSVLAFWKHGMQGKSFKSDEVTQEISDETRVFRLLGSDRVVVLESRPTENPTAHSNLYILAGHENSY
PYK2, sequence (Q14289 whole entry): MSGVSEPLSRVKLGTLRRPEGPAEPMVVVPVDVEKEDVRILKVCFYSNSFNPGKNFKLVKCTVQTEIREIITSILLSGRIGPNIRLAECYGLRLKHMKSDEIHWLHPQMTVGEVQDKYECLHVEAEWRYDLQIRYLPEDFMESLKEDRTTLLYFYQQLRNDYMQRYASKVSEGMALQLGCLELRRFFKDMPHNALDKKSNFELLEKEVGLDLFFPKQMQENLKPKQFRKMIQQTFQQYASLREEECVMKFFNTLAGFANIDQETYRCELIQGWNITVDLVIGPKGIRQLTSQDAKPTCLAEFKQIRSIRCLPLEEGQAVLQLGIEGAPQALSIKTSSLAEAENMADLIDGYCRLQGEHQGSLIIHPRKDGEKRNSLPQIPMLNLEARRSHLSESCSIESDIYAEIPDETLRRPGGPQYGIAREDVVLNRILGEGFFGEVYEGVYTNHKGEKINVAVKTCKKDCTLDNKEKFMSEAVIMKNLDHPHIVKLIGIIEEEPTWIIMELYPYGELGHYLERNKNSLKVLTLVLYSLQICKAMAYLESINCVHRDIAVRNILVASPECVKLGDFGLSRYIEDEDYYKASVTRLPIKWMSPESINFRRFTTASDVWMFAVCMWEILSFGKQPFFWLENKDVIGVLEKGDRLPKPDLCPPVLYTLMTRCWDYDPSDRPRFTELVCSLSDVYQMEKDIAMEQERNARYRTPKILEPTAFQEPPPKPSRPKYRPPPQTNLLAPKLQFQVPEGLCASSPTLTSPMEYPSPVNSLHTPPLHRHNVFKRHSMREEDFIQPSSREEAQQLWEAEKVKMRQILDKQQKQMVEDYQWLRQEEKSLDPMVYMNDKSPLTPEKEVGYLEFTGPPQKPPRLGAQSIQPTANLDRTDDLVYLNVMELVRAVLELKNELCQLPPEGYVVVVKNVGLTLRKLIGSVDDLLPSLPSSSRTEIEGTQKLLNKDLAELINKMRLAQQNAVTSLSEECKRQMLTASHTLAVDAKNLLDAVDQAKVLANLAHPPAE
PKD3, sequence (O94806 whole entry): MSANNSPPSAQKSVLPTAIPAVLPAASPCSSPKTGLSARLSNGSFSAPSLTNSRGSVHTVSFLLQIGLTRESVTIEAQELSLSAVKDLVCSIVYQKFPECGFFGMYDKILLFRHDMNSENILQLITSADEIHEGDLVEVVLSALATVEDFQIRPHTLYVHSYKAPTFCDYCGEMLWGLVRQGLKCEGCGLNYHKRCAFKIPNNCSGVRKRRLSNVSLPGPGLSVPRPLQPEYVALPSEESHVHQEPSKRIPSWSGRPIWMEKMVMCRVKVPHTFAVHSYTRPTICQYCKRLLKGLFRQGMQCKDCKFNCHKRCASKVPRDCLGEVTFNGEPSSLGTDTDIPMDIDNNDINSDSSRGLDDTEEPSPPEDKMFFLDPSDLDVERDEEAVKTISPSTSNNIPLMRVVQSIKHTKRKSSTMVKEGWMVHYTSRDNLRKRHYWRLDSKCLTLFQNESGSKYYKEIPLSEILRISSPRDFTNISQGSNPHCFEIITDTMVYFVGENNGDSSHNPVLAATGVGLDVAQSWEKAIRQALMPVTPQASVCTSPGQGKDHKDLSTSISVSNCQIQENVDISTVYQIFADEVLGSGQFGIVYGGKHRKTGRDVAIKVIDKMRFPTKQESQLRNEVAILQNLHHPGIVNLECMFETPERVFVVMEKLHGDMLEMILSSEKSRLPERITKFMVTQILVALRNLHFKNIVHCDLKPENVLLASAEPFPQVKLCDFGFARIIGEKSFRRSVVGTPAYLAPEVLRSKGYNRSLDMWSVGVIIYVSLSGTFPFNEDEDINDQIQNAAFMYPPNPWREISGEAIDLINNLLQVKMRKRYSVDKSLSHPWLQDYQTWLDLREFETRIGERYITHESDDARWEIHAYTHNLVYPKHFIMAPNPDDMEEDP
ILK, sequence (Q13418 whole entry, the tested form may be a part): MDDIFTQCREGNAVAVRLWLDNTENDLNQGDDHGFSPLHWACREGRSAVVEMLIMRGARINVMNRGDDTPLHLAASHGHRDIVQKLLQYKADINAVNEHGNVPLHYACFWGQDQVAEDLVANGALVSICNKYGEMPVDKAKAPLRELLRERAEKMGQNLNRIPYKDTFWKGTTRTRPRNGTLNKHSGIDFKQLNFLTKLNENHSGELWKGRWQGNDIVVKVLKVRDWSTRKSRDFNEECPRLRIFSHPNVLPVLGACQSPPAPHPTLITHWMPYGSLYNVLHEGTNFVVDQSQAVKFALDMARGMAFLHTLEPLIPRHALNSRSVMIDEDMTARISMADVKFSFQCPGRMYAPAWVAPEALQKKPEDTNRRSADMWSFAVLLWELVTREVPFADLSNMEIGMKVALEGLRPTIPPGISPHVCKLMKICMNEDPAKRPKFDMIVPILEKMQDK
p38a, sequence (Q16539 whole entry, the tested form may be a part): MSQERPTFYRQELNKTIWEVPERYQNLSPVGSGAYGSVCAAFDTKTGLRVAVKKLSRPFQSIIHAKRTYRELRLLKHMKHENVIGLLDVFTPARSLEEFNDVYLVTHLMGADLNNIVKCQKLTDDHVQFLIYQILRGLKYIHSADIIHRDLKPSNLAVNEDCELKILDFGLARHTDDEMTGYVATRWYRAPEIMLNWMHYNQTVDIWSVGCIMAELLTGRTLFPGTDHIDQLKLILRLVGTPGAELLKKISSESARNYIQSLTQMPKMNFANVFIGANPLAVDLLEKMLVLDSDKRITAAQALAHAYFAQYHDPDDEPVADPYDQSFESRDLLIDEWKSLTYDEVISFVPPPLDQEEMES

Cc1ccc(C(=O)Nc2cccc(C(C)(C)C#N)c2)cc1NC(=O)c1cncc(-c2cccs2)c1 [I-6, N-(5-((3-(2-cyanopropan-2-yl)phenyl)carbamoyl)-2-methylphenyl)-5-(thiophen-2-yl)nicotinamide]
inhibition at 1 µM (ACK): -1.2% | inhibition at 1 µM (BLK): 68.8% | inhibition at 1 µM (CaMK2d): -1.1% | inhibition at 1 µM (CaMK4): 20.7% | inhibition at 1 µM (CDC2): -7.9% | inhibition at 1 µM (CDK7): -6.8% | inhibition at 1 µM (CHK2): 4.7% | inhibition at 1 µM (CK1a): 25.1% | inhibition at 1 µM (CK1g2): 10.8% | inhibition at 1 µM (CSK): 23.3% | inhibition at 1 µM (DNAPK): 4.6% | inhibition at 1 µM (Erk2): -11% | inhibition at 1 µM (GCK): 21.9% | inhibition at 1 µM (GSK3A): 17.3% | inhibition at 1 µM (HPK1): 7.5% | inhibition at 1 µM (ILK): 17.2% | inhibition at 1 µM (KHS1): -21.8% | inhibition at 1 µM (LCK): 82.1% | inhibition at 1 µM (LYN; Activation Loop, A375 cells): 68.5% | inhibition at 1 µM (LYN; Lys1, A375 cells): 87.6% | inhibition at 1 µM (MAP2K7): -3% | inhibition at 1 µM (MAP3K1): 9.8% | inhibition at 1 µM (MAP3K5): 16.2% | inhibition at 1 µM (MARK3): -2.2% | inhibition at 1 µM (MAST3): 18.9% | inhibition at 1 µM (MASTL): -3.7% | inhibition at 1 µM (MST1): -26.3% | inhibition at 1 µM (MST2): -6.1% | inhibition at 1 µM (MST3): -0.4% | inhibition of kinase labeling (MST4, YSK1): 22% | inhibition at 1 µM (NEK7): 10.7% | inhibition at 1 µM (p38a): 85.1% | inhibition at 1 µM (PFTAIRE1): -31.3% | inhibition of kinase labeling (PKD1, PKD2): −2.5% | inhibition at 1 µM (PKD3): -4.5% | inhibition at 1 µM (PYK2): 5.4% | inhibition of kinase labeling (ROCK1, ROCK2): 12.7% | inhibition at 1 µM (RSK2 domain2): -15.8% | inhibition at 1 µM (TLK1): 3.9% | inhibition of kinase labeling (ZAK; Lys1, 1 μM, A375 cells): >95% | inhibition at 1 µM (ZAK; Lys1, A375 cells, read-out: inhibition of kinase labeling): > 95% | inhibition at 1 µM (ZAP70): 7.5%
